Experimental data as given in patent publication US12404241B2 (Celgene Corporation, priority 2018, dated 2025).
Structures can show the parent of a compound that is named as a salt. Where two headings read alike, the source gives them in different places.

Biological target: T1, AR (Homo sapiens, UniProt P10275)
T1 construct: endogenous in cells; host or cells: VCaP cells
T1 sequence (P10275 1-920): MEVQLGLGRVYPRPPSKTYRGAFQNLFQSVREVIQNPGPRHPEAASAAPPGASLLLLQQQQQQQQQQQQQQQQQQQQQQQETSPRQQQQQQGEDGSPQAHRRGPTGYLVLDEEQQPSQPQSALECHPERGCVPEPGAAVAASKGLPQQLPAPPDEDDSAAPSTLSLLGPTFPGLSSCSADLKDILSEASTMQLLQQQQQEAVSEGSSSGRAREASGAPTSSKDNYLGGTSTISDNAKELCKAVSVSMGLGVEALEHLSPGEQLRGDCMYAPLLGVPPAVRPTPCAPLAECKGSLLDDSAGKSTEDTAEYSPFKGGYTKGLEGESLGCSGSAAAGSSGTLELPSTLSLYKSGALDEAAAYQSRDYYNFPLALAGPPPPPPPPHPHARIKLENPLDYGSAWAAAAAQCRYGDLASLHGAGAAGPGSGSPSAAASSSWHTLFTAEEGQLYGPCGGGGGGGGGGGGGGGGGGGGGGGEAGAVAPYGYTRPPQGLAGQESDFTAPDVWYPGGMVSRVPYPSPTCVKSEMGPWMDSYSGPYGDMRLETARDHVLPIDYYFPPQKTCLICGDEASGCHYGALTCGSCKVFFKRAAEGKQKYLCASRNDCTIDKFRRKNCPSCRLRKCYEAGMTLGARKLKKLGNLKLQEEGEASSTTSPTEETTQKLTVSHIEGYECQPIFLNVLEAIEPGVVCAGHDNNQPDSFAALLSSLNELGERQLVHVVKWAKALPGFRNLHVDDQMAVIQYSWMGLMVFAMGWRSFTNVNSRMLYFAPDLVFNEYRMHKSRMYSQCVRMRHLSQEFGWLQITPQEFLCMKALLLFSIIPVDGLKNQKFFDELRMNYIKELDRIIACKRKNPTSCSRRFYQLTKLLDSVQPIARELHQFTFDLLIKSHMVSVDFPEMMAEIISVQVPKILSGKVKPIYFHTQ
Test: VCAP AR Degradation Assay
Format: cell-based
Conditions: for Y (AR degradation efficiency, % of DMSO control): class symbols *; for DC50: class symbols A-C
Procedure, shortened: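 AR protein in lysates quantified by sandwich ELISA after 24 h exposure of VCaP cells at 37 °C to 10 concentrations (1:3 steps, 5 μM top, final). Four-parameter logistic fit of percent-of-DMSO levels gave DC50 (50% degradation), EC50 and minimal AR level Y.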

Structure (SMILES)	Y (AR degradation efficiency, % of DMSO control)	DC50 (read-out: DC50) [nM]	DC50 [nM]
CCc1cc(N2C(=S)N(c3ccc(C#N)c(C(F)(F)F)c3)C(=O)C2(C)C)ccc1OCCN1CCN(CC(=O)Nc2cc(F)cc(NC3CCC(=O)NC3=O)c2)CC1 (stereo not shown) [Example 61, 2-(4-(2-(4-(3-(4-cyano-3-(trifluoromethyl)phenyl)-5,5-dimethyl-4-oxo-2-thioxoimidazolidin-1-yl)-2-ethylphenoxy)ethyl)piperazin-1-yl)-N-(3-(2,6-dioxopiperidin-3-ylamino)-5-fluorophenyl)acetamide]	* (0<Y<=25%)	< 100	–
CCc1cc(N2C(=S)N(c3ccc(C#N)c(C(F)(F)F)c3)C(=O)C2(C)C)ccc1OCCN1C[C@H](C)N(CC(=O)Nc2cccc(NC3CCC(=O)NC3=O)c2)C[C@@H]1C (stereo partly drawn) [Example 125, 2-((2S,5S)-4-(2-(4-(3-(4-cyano-3-(trifluoromethyl)phenyl)-5,5-dimethyl-4-oxo-2-thioxoimidazolidin-1-yl)-2-ethylphenoxy)ethyl)-2,5-dimethylpiperazin-1-yl)-N-(3-(2,6-dioxopiperidin-3-ylamino)phenyl)acetamide]	* (0<Y<=25%)	100 to 500	–
CC1(C)C(=O)N(c2cnc(C#N)c(C(F)(F)F)c2)C(=S)N1c1ccc(OCCN2CCN(CC(=O)Nc3cccc(NC4CCC(=O)NC4=O)c3)CC2)c(C2CCC2)c1 (stereo not shown) [Example 36, trifluoroacetate]	* (0<Y<=25%)	< 100	–
N#Cc1ncc(N2C(=O)C3(CCC3)N(c3ccc(OCCN4CCN(CC(=O)Nc5cccc(NC6CCC(=O)NC6=O)c5)CC4)c(F)c3)C2=S)cc1C(F)(F)F (stereo not shown) [Example 6]	** (25%<Y<=35%)	< 100	–
CCc1cc(N2C(=S)N(c3cnc(C#N)c(C(F)(F)F)c3)C(=O)C2(C)C)ccc1OCCN1C[C@@H]2C[C@H]1CN2CC(=O)Nc1cc(Cl)cc(NC2CCC(=O)NC2=O)c1 (stereo partly drawn) [Example 115, N-(3-chloro-5-(2,6-dioxopiperidin-3-ylamino)phenyl)-2-((1S,4S)-5-(2-(4-(3-(6-cyano-5-(trifluoromethyl)pyridin-3-yl)-5,5-dimethyl-4-oxo-2-thioxoimidazolidin-1-yl)-2-ethylphenoxy)ethyl)-2,5-diazabicyclo[2.2.1]heptan-2-yl)acetamide]	** (25%<Y<=35%)	100 to 500	–
CCc1cc(N2C(=S)N(c3cnc(C#N)c(C(F)(F)F)c3)C(=O)C2(C)C)ccc1OCCN1CC2CCC(C1)N2CC(=O)Nc1cc(Cl)cc(NC2CCC(=O)NC2=O)c1 (stereo not shown) [Example 173, N-(3-chloro-5-(2,6-dioxopiperidin-3-ylamino)phenyl)-2-(3-(2-(4-(3-(6-cyano-5-(trifluoromethyl)pyridin-3-yl)-5,5-dimethyl-4-oxo-2-thioxoimidazolidin-1-yl)-2-ethylphenoxy)ethyl)-3,8-diazabicyclo[3.2.1]octan-8-yl)acetamide]	* (0<Y<=25%)	–	< 100
C[C@@H]1CN(CCOc2ccc(N3C(=S)N(c4ccc(C#N)c(C(F)(F)F)c4)C(=O)C3(C)C)cc2CC(F)F)CCN1CC(=O)Nc1cc(Cl)cc(NC2CCC(=O)NC2=O)c1 (stereo partly drawn) [Example 152, N-(3-chloro-5-(2,6-dioxopiperidin-3-ylamino)phenyl)-2-((R)-4-(2-(4-(3-(4-cyano-3-(trifluoromethyl)phenyl)-5,5-dimethyl-4-oxo-2-thioxoimidazolidin-1-yl)-2-(2,2-difluoroethyl)phenoxy)ethyl)-2-methylpiperazin-1-yl)acetamide]	* (0<Y<=25%)	< 100	–
CCc1cc(N2C(=S)N(c3ccc(C#N)c(C(F)(F)F)c3)C(=O)C2(C)C)ccc1OCCN1CCN(CC(=O)Nc2cccc(NC3CCC(=O)NC3=O)c2)C[C@H]1CO (stereo partly shown) [Example 49]	** (25%<Y<=35%)	< 100	–
